This is an account of results in ChEMBL document CHEMBL3046686, “Isoxazole derivatives as a potential insecticide for managing Callosobruchus chinensis” (2010).

In brackets after ≈: the same amount, converted by molar mass.

The test system of assay [1] is Callosobruchus chinensis. Put plainly: Insecticidal activity against Callosobruchus chinensis assessed as mortality at 1000 mg/l at 27 +/- 1 degC and 70% RH. It counts as functional.
The subject of assay [2] is Callosobruchus chinensis. Put plainly: Insecticidal activity against Callosobruchus chinensis assessed as mortality at 27 +/- 1 degC and 70% RH. It counts as functional.

One may read the mortality as the percentage killed. With `Clc1ccc(-c2cc(-c3ccccc3)on2)cc1`, the mortality at 1000 µg/mL in the assay on Callosobruchus chinensis [1] came out at 65%. As for `COc1ccc(-c2cc(-c3ccccc3)no2)cc1`, in the assay with Callosobruchus chinensis [1], the mortality at 1000 µg/mL is 66%.

Take `Cc1ccc(-c2cc(-c3ccccc3)no2)cc1`: the mortality at 1000 µg/mL in the assay on Callosobruchus chinensis [1] amounted to 65%. In general, LC50 refers to the concentration lethal to half of the exposed cells or organisms. Regarding `COc1ccc(-c2cc(-c3ccc(Cl)cc3)on2)cc1`, the LC50 with Callosobruchus chinensis [2] was found to be 330 µg/mL (≈ 1150 µM). For the same molecule, in the assay on Callosobruchus chinensis [1], the mortality at 1000 µg/mL came to 85%.

With `Fc1ccc(-c2cc(-c3ccccc3)on2)cc1`, in the assay with Callosobruchus chinensis [2], the LC50 was 254 µg/mL (≈ 1060 µM). Further, the mortality at 1000 µg/mL in the assay with Callosobruchus chinensis [1] is 86%. With `Fc1ccc(-c2cc(-c3ccc(Cl)cc3)on2)cc1`, in the assay with Callosobruchus chinensis [1], the mortality at 1000 µg/mL was 59%. Take `Cc1ccc(-c2cc(-c3ccc(F)cc3)no2)cc1`: in the assay on Callosobruchus chinensis [1], the mortality at 1000 µg/mL is 67%. With `COc1ccc(-c2cc(-c3ccc(F)cc3)no2)cc1`, in the assay on Callosobruchus chinensis [2], the LC50 turned out to be 289 µg/mL (≈ 1070 µM). The mortality at 1000 µg/mL in the assay with Callosobruchus chinensis [1] worked out at 88%. Consider `Clc1ccc(-c2cc(-c3ccc(Cl)cc3)on2)cc1`, for which the median lethal concentration (LC50) with Callosobruchus chinensis [2] came out at 134 µg/mL (≈ 462 µM). The mortality at 1000 µg/mL with Callosobruchus chinensis [1] stood at 90%. Consider `Cc1ccc(-c2cc(-c3ccc(Cl)cc3)no2)cc1`, for which the mortality at 1000 µg/mL in the assay with Callosobruchus chinensis [1] was 63%.

Consider `COc1ccc(-c2cc(-c3ccc(Cl)cc3)no2)cc1`, for which, in the assay with Callosobruchus chinensis [2], the LC50 worked out at 354 µg/mL (≈ 1240 µM). Also, the mortality at 1000 µg/mL in the assay on Callosobruchus chinensis [1] came out at 82%. As for `Clc1ccccc1-c1cc(-c2ccccc2)on1`, the 50% lethal concentration (LC50) in the assay on Callosobruchus chinensis [2] was 36 µg/mL (≈ 141 µM). Further, the mortality at 1000 µg/mL in the assay on Callosobruchus chinensis [1] turned out to be 78%. As for `Clc1ccc(-c2cc(-c3ccccc3Cl)no2)cc1`, the median lethal concentration (LC50) with Callosobruchus chinensis [2] was 338 µg/mL (≈ 1160 µM). Besides, the mortality at 1000 µg/mL in the assay on Callosobruchus chinensis [1] stood at 85%. Regarding `Cc1ccc(-c2cc(-c3ccccc3Cl)no2)cc1`, the mortality at 1000 µg/mL in the assay on Callosobruchus chinensis [1] worked out at 68%.

For `COc1ccc(-c2cc(-c3ccccc3Cl)no2)cc1`, the 50% lethal concentration (LC50) in the assay on Callosobruchus chinensis [2] is 110 µg/mL (≈ 385 µM). Also, the mortality at 1000 µg/mL in the assay with Callosobruchus chinensis [1] came to 86%. As for `COc1ccc(-c2cc(-c3ccccc3)on2)cc1`, the mortality at 1000 µg/mL with Callosobruchus chinensis [1] was found to be 58%. For `COc1ccc(-c2cc(-c3ccc(C)cc3)on2)cc1`, the LC50 with Callosobruchus chinensis [2] is 93 µg/mL (≈ 351 µM). In the assay on Callosobruchus chinensis [1], the mortality at 1000 µg/mL is 84%. In the same order, the values of `COc1ccc(-c2cc(-c3ccc(OC)cc3)on2)cc1` are 296 µg/mL (≈ 1050 µM) and 89%. As to `Clc1ccc(-c2cc(-c3ccccc3)no2)cc1`, the mortality at 1000 µg/mL with Callosobruchus chinensis [1] was 46%. On the same count and under the same terms, to `c1ccc(-c2cc(-c3ccccc3)on2)cc1` [3,5-DIPHENYLISOXAZOLE] belongs 67%. In the case of `COP(=O)(OC)OC=C(Cl)Cl` [DICHLORVOS], in the assay on Callosobruchus chinensis [2], the LC50 worked out at 155 µg/mL (≈ 701 µM).
